Measurements from ChEMBL document CHEMBL1129315, “Studies on selectin blockers. 2. Novel selectin blocker as potential therapeutics for inflammatory disorders” (J Med Chem, 1996).

Tests used:
E-selectin = biological target: T1, E-selectin (Homo sapiens, UniProt P16581); experiment: Inhibitory concentration against blocking of E-selectin during migration of inflammatory cells to inflammatory site
T1 sequence (P16581 whole entry): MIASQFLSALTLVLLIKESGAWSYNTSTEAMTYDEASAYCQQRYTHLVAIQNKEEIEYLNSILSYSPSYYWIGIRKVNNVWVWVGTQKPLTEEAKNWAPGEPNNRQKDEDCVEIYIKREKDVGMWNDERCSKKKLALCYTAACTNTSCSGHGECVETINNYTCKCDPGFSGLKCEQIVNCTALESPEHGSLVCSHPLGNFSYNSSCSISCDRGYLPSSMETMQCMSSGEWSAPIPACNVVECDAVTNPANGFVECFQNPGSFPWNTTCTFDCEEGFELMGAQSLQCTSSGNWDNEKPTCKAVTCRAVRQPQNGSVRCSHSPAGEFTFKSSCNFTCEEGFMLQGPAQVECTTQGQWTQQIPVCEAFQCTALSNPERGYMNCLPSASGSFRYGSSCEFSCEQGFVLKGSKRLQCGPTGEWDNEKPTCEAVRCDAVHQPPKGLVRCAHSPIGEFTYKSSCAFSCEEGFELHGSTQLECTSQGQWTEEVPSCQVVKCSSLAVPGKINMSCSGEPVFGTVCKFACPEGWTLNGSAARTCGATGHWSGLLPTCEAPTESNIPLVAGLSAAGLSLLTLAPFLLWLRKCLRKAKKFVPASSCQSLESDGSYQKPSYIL

L-selectin = biological target: T2, L-selectin (Homo sapiens, UniProt P14151); experiment: Inhibitory concentration against blocking of Selectin L during migration of inflammatory cells to inflammatory site
T2 sequence (P14151 whole entry): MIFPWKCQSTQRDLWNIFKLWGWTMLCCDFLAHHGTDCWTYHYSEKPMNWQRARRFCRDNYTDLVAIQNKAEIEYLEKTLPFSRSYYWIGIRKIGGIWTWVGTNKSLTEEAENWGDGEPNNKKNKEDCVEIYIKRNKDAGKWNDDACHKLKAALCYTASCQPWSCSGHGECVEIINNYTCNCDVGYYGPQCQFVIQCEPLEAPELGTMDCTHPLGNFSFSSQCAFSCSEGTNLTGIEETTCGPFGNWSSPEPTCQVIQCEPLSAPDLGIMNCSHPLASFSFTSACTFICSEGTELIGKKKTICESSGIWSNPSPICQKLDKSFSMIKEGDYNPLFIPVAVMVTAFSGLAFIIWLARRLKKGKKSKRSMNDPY

P-selectin = biological target: T3, P-selectin (Homo sapiens, UniProt P16109); experiment: Inhibitory concentration against blocking of Selectin P during migration of inflammatory cells to inflammatory site
T3 sequence (P16109 whole entry): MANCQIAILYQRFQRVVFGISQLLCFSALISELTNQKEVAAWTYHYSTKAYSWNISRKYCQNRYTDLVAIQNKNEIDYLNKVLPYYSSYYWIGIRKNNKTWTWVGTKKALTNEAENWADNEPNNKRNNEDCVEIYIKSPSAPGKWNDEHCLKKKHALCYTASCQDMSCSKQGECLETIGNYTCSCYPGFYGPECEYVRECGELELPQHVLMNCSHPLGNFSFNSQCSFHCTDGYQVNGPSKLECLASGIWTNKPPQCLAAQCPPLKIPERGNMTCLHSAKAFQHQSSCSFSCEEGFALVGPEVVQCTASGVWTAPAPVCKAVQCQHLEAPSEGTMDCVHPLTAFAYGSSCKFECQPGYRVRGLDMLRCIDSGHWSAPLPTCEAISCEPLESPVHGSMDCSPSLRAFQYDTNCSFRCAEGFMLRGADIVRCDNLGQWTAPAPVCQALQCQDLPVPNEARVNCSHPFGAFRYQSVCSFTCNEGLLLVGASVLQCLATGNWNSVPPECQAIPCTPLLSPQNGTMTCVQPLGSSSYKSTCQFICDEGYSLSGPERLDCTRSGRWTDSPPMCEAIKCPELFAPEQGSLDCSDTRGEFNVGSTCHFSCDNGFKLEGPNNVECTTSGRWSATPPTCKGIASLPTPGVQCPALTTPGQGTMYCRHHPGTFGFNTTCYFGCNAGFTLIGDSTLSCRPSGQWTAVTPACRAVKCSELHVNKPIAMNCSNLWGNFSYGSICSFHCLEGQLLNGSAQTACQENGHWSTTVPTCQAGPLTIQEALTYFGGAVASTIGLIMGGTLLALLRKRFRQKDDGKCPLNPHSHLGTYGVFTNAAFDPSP

## CC1OC(OC2C(O)COC(CO)C2OC2OC(CO)C(O)C(OS(=O)(=O)O)C2O)C(O)C(O)C1O (stereo not given)
E-selectin
  IC50: > 1000 µM
L-selectin
  IC50: > 1000 µM
P-selectin
  IC50: 300 µM

## CC(=O)N[C@H]1[C@H]([C@H](O)[C@H](O)CO)O[C@@](O[C@H]2[C@@H](O)[C@@H](CO)O[C@@H](O[C@@H]([C@H](O[C@@H]3O[C@@H](C)[C@@H](O)[C@@H](O)[C@@H]3O)[C@H](C=O)NC(C)=O)[C@H](O)CO)[C@@H]2O)(C(=O)O)C[C@@H]1O [SIALYL LEWIS X]
L-selectin
  IC50: > 1000 µM
P-selectin
  IC50: > 1000 µM
